# Patent US6645514B1, “Increasing skin cell renewal with water-soluble Vitamin E” (Access Business Group International, LLC, priority 2002, dated 2003)
# How the values were obtained:
# skin [1] = assay: skin cell-renewal (exfoliation) rate after topical application; assay type: in vivo, human
# Procedure: (§1) Skin irritation, expressed as a “Sting” percentage, was also determined. The increase in skin cell renewal rate and irritation level was measured substantially according to the procedure described in Soap/Cosmetics/Chemical Specialties for September 1993 at pp. 54-58 and 76.
# skin [2] = assay: skin irritation level (Sting %) after topical application; assay type: in vivo, human
# Procedure: as §1
# [3] = cited from earlier work
# [4] = 0.5 wt % active, composition pH 5.65
# [5] = 1.0 wt % active, composition pH 7.21
SMILES,"Cell-Renewal Rate % (skin [1]; 5 wt % active, composition pH 3) [%]",Irritation Level (Sting %) (skin [2]; [4]) [%],Irritation Level (Sting %) (skin [2]; [5]) [%],"irritation to the skin relative to Lactic Acid (skin [2]; at pH 7.21, relative to Lactic Acid)","times less irritating to the skin than Lactic Acid (skin [2]; relative to Lactic Acid 5 wt %, pH 3)",solubility in water [3],Cell-Renewal Rate % (skin [1]; [4]) [%],Cell-Renewal Rate % (skin [1]; [5]) [%]
"CC(O)C(=O)O (centres unmarked) [Lactic Acid, reference compound]",31.7,–,–,–,–,–,–,–
"Cc1c(C)c2c(c(C)c1OP(=O)(O)O)CC[C@@](C)(CCC[C@H](C)CCC[C@H](C)CCCC(C)C)O2 [VEP, Sodium Vitamin E Phosphate]",–,17.3,10.7,about one-twentieth,at least 4.5 times,soluble in water,15.2,16.6
